Results: patent US7745465B2, “Method of enhancing cellular production of molecular chaperone, hydroxylamine derivatives useful for enhancing the chaperone production and the preparation thereof” (CytRx Corporation, priority 1995, dated 2010)
Each block holds one molecule with its values, some of them ahead of it.

Key:
Male Sprague-Dawley rats = test: Protection against cardiac ischaemia: survival after 5 minutes coronary occlusion and reperfusion; format: in vivo, rat; settings: i.v. 1 mg/kgbw, 5 min. before the occlusion; non-treated control 10
Procedure: Male Sprague-Dawley rats (380-450 g b.w.) were anaesthetized with sodiumpentobarbital (Nembutal 60 mg/kg body weight, i.p.) and artificially ventilated with room air (2 ml/100 g; 54 stroke/minutes) via tracheotomy. The right carotid artery was catheterized and connected to a pressure transducer (BPR-01, Stoelting) for the measurement of systemic arterial blood pressure (BP) by means of a preamplifier (Hg-02, Experimetria). Hydroxylamine derivatives disclosed in Example 5 were administered via the venous cannule to jugular vein (i.v.) and orally (p.o.). Heart rate (HR) was measured by a cardiotachometer (HR-01, Experimetria). The electrocardiogram (ECG standard lead II) was recorded on a devices recorder (MR-12, Medicor) by means of subcutaneous steel needles electrodes. The chest was opened by a left thoracotomy and the heart was exteriorized by a gentle pressure on the right side of the rib cage. A 4-0 silk suture was quickly placed under the main left coronary artery as described by Selye et al. (1960). The heart was carefully replaced in the chest and the animal left to recover. Rectal temperature was monitored and kept constant at 37 C. The experimental protocol was initiated with a 15 minute stabilization period during which the observation of a sustained blood pressure less than 70 mmHg and or the occurrence of anhythmia led to exclusion. Myocardial ischemia was induced with coronary occlusion for 5 minutes and reperfusion allowed for 10 minutes.
During the entire experiment BP, HR and ECG were continuously registered on a multiscriptor (R61-6CH, Medicor). Hydroxylamine derivatives, the tautomeric forms of which are represented by structures (I) and (II), were administered 5 to 60 minutes before the occlusion after i.v. and p.o. treatment, respectively. […]
The mean duration of ventricular tachycardia (VT) and/or ventricular fibrillation (VF) during the first 3 minutes of reperfusion was analyzed by one-way analysis of variance. The incidence of VF was analyzed using a chi-square test. […] The haemodynamic variables were analyzed using Student's “t”-test. The critical level of significance was set at p<0.05. All results were expressed as a means±S.E.M. Drugs were administered i.v. in a dose of 1 mg/kgbw 5 min. before the occlusion.
The hydroxylamine derivatives that are found to be particularly advantageous for protecting an animal against ischemic/reperfusion injury are listed below. Survival (%) indicates the percent of animals survived the effects of 5 minutes coronary occlusion.

[1] = test system: Rats with genetic hypertension; test: Morphological examination of the thoracic aorta of rats with genetic hypertension; format: in vivo, rat; settings: daily oral treatment (20 mg/kg 8 days or 5 mg/kg 20 days)
Procedure: Rats with genetic hypertension were divided into four groups of four. The groups were treated daily, orally, the first group with physiological saline, the second group with N-[2-hydroxy-3-(1-piperidinyl)]-propoxy-3-pyridine-carboximidoyl-chloride maleate (20 mg/kg) for 8 days, the third group with N-[2-hydroxy-3-(1-piperidinyl)-propoxy]-benzimidoyl-chloride monohydrochloride (5 mg/kg) for 20 days and the fourth group with N-[2-hydroxy-3-(1-piperidinyl)-propoxy]-2-thiophenecarboximidoyl-chloride monohydrochloride (5 mg/kg) for 20 days. Animals were sacrificed, aortas were isolated, snap frozen in liquid nitrogen and were stored at −70° C. till they were used.
The examination was performed according to published methods (Br. J. of Pharmacol., 1995; 115, […]). A 1 mm^2 area of the thoracic aorta was excised and fixed in 2.5% glutaral-dehyde at room temperature. Post fixation was performed in 1% osmium-tetroxide for one hour. The tissue was dehydrated in ethanol and was embedded in Durcupan ACM. Pictures were taken by a Hitachi 7100 electronmicroscope and were evaluated qualitatively.

Hsp72 [2] = test: Heat stress induced hsp72 expression in rat testicular explant; format: cell-based; settings: 10^−5 M, 15 min. before 43° C. 30 min.
Procedure: Testis of CFY rats weighing of 200 g were removed in sterile conditions and the released testicular tubuli were suspended in 10% fetal bovine serum containing MEM culture medium in that way that five ml suspension contained 50-100 mg tissue. The explants were incubated in 5% CO2 containing humidified air at 37° C. for one hour, then the cultures were treated with 10^−5 M concentration of the tested compounds. After a further incubation for 15 min. at 37° C., explants were exposed to heat shock at 43° C. for 30 min. The amount of the induced hsp72 was measured after a further 6 hours incubation at 37° C.

Hsp72 [3] = test: Heat stress induced hsp72 expression in rat spleen explant; format: cell-based; settings: 10^−5 M, 15 min. before 43° C. 30 min.
Procedure: These experiments were performed on rat spleen and testicular tissue explants applying heat stress after treatment with the experimental compounds. Experiments on spleen suspension were carried out as follows.
Spleens of CFY rats weighing 200 g were removed aseptically, and were homogenized in 10% fetal bovine serum containing MEM culture medium. The concentration of the cell suspension was adjusted to 50-100 mg/5 ml.
Five ml cell suspension was given into each of the culture dishes of 6 cm of diameter and the explants were incubated for one hour in a 5% CO2 containing humidified air at 37° C. then cultures were treated with the 10^−5 M concentration of the test compounds. After further 15 min. incubation at 37° C. the cultures were exposed to heat shock at 43° C. for 30 min. in an incubator. The amount of the induced hsp72 was measured after a further 6 hours incubation at 37° C.

HSP72 [4] = test: Heat stress induced HSP72 production in 3T3 cells; format: cell-based, mouse; settings: 10^−5 M
Procedure: (§1) From the applied cells the 3T3 and L-929 mouse fibroblasts were cultured in MEM medium and grew in monolayer, the U-937 human leukemia cells were maintained in RPMI-1640 medium, in suspension culture, while the HeLa human epithelial cells were cultured in DMEM medium and in monolayer form. Cell cultures were maintained as described in example 6.2 (a) with the difference that cells were cultured in the above mentioned culture mediums.
(§2) Experiments were carried out applying stress before and after the drug treatment. Stress was provoked by heat, by chemical agent, HgCl2 treatment. The test compounds were applied in the treatments at the 10^−5 M concentration.
The experiments on 3T3 cell applying heat stress were performed as described in the 6.2. (c) point of example 6, with the difference that stress was induced by a 30 min. exposure at 43° C. temperature and treatment with the test compounds was performed 15 min. before or 100 min. after the heat stress.
Immunodetection was carried out using the HSP72 specific SPA 810 (StressGene) primary and the horse-radish peroxidase conjugated A9044 (Sigma) secondary antibodies. Densitometric evaluation was performed by a LKB Ultrascan XL densitometer.

hsp72 [5] = test: HgCl2 stress induced hsp72 level in HeLa cells; format: cell-based, human; settings: 10^−5 M, 0.5 μg/ml HgCl2, 6 hours
Procedure: as §1, §2
These experiments were performed on HeLa, human epithelial and U-937, human leukemia cells using HgCl2 to induce stress response. Drug treatment was carried out before cells were exposed to the stress. Test cultures were prepared and treatments were performed as in the experiments with the 3T3 cells. After the drug treatment cells were incubated at 37° C. for 15 min. than all the cultures except two (non stressed control) were exposed to 0.5 μg/ml concentration of HgCl2 and the incubation was followed. The induced amount of hsp72 was measured 6 hours after the exposure to stress.

GRP-94 = test: Level of GRP-94 in STZ diabetic rat liver (Western blot); format: in vivo
[6] = treatment 15 min. before 30 min. 43° C. heat stress
[7] = treatment 100 min. after 30 min. 43° C. heat stress

Molecule: Cl.OC(CON=C(Cl)c1cccs1)CN1CCCCC1 (centres unmarked) [Example 1, N-[2-hydroxy-3-(1-piperidinyl)propoxyl]-2-thiophenecarboximidoyl chloride monohydrochloride]
Survival (%) (Male Sprague-Dawley rats): 100% | regeneration of the cells of aorta [1]: facilitated the regeneration of the cells of aorta

melting point: 121 to 128 °C
Molecule: CCN(CC)CC(O)CON=C(Cl)c1cccc(C(F)(F)F)c1.Cl (centres unmarked) [Example 12, N-[3-(diethylamino)-2-hydroxypropoxy]-3-trifluoromethyl-benzenecarboximidoyl chloride monohydrochloride]
Level of hsp72 relative to the stress exposed control (Hsp72 [2]): + (21-50%)

Molecule: O=C(O)/C=C\C(=O)O.O=C(OC(CON=C(Cl)c1cccnc1)CN1CCCCC1)c1ccccc1 (centres unmarked) [Example 21, N-[2-benzoyloxy-3-(1-piperidinyl)propoxy]-3-pyridinecarboximidoyl chloride (Z)-2-butenedioate (1:1)]
melting point: 134 to 136 °C | Level of hsp72 relative to the stress exposed control (Hsp72 [2]): + +

melting point: 69 to 73.5 °C
Molecule: CCCCCCCCCCCCCCCC(=O)OC(CON=C(Cl)c1cccnc1)CN1CCCCC1.Cl.Cl (centres unmarked) [Example 23, N-[2-palmitoyloxy-3-(1-piperidinyl)propoxy]-3-pyridinecarboximidoyl chloride dihydrochloride]
Level of hsp72 relative to the stress exposed control (Hsp72 [2]): + + +

Molecule: CCCCCCCNC(=O)NOCC(O)CN1CCCCC1 (centres unmarked) [Example 55, N-[2-hydroxy-3-(1-piperidinyl)propoxy]-N′-heptyl-urea]
Level of hsp72 relative to the stress exposed control (Hsp72 [2]): + + | Level of hsp72 relative to the stress exposed control (Hsp72 [3]): +++ (>100%)

Molecule: O=C(NOCC(O)CN1CCCCC1)Nc1cccc(Cl)c1 (centres unmarked) [Example 59, N-(3-chlorophenyl)-N′-[2-hydroxy-3-(1-piperidinyl)propoxy]-urea]
HSP72 level relative to the stress exposed control (HSP72 [4]; [6]): +++ (>100%) | Level of hsp72 relative to the stress exposed control (Hsp72 [3]): +++ (>100%)

Molecule: c1cncc(C2=NOCC(CN3CCCCC3)N2)c1 (centres unmarked) [Example 64, 5,6-Dihydro-5-(1-piperidinyl)methyl-3-(3-pyridyl)-4H-1,2,4-oxadiazine]
Survival (%) (Male Sprague-Dawley rats): 100% | HSP72 level relative to the stress exposed control (HSP72 [4]; [6]): +++ (>100%) | HSP72 level relative to the stress exposed control (HSP72 [4]; [7]): 0 (0 indicates that the treatment altered by ±20% the stress induced hsp72 level in the cells) | Level of hsp72 relative to the stress exposed control (Hsp72 [2]): + + | Level of hsp72 relative to the stress exposed control (Hsp72 [3]): 0 (0 indicates that the treatment altered by ±20% the stress induced hsp72 level in the cells)

Molecule: CC(C)(C)NCC(O)CONC(=O)c1cccc(C(F)(F)F)c1 (centres unmarked) [Example 65]
Survival (%) (Male Sprague-Dawley rats): 78% | Level of hsp72 relative to the stress exposed control (Hsp72 [2]): 0 (0 indicates that the treatment altered by ±20% the stress induced hsp72 level in the cells) | Level of hsp72 relative to the stress exposed control (Hsp72 [3]): + (21-50%)

Molecule: Cl.O=[N+]([O-])c1cccc(C(Cl)=NOCCCN2CCCCC2)c1 [Example 79, O-(3-piperidinopropyl)-3-nitro-benzhydroximyl chloride hydrochloride]
Survival (%) (Male Sprague-Dawley rats): 100% | HSP72 level relative to the stress exposed control (HSP72 [4]; [6]): +++ (>100%) | HSP72 level relative to the stress exposed control (HSP72 [4]; [7]): + (21-50%) | increase of the stress induced hsp72 level (hsp72 [5]): more than 50% | Level of hsp72 relative to the stress exposed control (Hsp72 [2]): + +

Molecule: Cl.OC(CON=C(Cl)c1ccccc1)CN1CCCCC1 (centres unmarked) [N-[2-hydroxy-3-(1-piperidinyl)-propoxy]-benzimidoyl-chloride monohydrochloride]
Survival (%) (Male Sprague-Dawley rats): 100% | regeneration of the cells of aorta [1]: facilitated the regeneration of the cells of aorta | HSP72 level relative to the stress exposed control (HSP72 [4]; [6]): + (21-50%) | increase of the stress induced hsp72 level (hsp72 [5]): more than 20% | Level of hsp72 relative to the stress exposed control (Hsp72 [2]): + + +

Molecule: insulin: Insulin (Protophane HM inj.) [reference compound]
levels of GRP-94 compared to the control state (GRP-94; insulin alone, 1 week and 2-weeks samples): almost doubled | relative amount of GRP-94 (GRP-94; rats diabetic for 4 weeks, insulinized, not treated with the compound): recovery of GRP-94 to the control level
